Assay results reported in patent US7851587B2, “Peptides derived from the C2 domain of epsilon PKC” (The Board of Trustees of the Leland Stanford Junior …, priority 2006, dated 2010).
Entries after “also recorded” stand apart in the source; their conditions may differ. Where two headings read alike, the source gives them in different places. Ends that are not written are not given here.

How the values were obtained:
εPKC [1] = assay: εPKC translocation from the soluble to the particulate fraction in CHO cells (immunoblot); format: cell-based; settings: for εPKC translocation in cells: 500 nM peptide for 15 minutes before sub-maximal 3 nM PMA, relative to control
Description: Upon activation, PKC translocates from the soluble to the particulate cell fraction, which translocation can be monitored by immunoblot analysis (26). It was previously determined that the effect of peptides on PKC translocation is better observed when the cells are treated with a sub-maximal concentration of PMA (22,42). Larger concentrations of PMA, a non-physiological activator, stimulate a greater degree of PKC translocation over translocation stimulated by peptide activators alone (51).
A representative activator (peptide 2) or inhibitor (peptide 7) were preincubated at 500 nM for 15 minutes with cells before sub-optimal stimulation with 3 nM PMA for 7 minutes.
PKC Translocation in Cells—εPKC translocation from the soluble to the particulate fraction in CHO cells was used to assess the relative amount of activated (membrane-bound) εPKC, an assay that has been described previously (42). Evidence of translocation is either by an increase in the amount of PKC in the particulate fraction or by a decrease in the soluble fraction. Briefly, after stimulation, cells were washed with cold PBS, scraped in homogenization buffer, passed through a (25G⅝″) syringe needle, and spun at 100,000 g for 30 min at 4° C. The pellet was then resuspended in homogenization buffer with 1% Triton X-100. Where applicable, the cells were pre-incubated with 500 nM peptide for 15 minutes prior to stimulation. PKC was stimulated with sub-maximal levels of the general PKC activator phorbol 12-myristate 13-acetate (PMA, 3 nM). The samples were then analyzed by Western blot. Antibodies against εPKC were obtained from Santa Cruz Biotechnology (Santa Cruz, Calif.) and used at 1:500 dilution.

intact heart, ex vivo [2] = assay: Ex vivo cardiac protection, ischemia and reperfusion in Langendorff-perfused hearts (TTC staining, CPK release); set-up: species or system Wistar rats
PKC [3] = assay: MARCKS phosphorylation in primary skeletal muscle cells from εPKC knockout mice (Western blot); settings: primary mouse muscle cells from εPKC knock-out mice; 1 μM peptide for 15 minutes
intact heart, ex vivo [4] = settings: pre-treatment, Langendorff apparatus; refs (4,43); cited from earlier work
εPKC [5] = biological target: T1, εPKC (Mus musculus, UniProt P16054); assay: In vivo PKC translocation in hearts after intraperitoneal injection (immunoblot); set-up: species or system mice; settings: for translocation of εPKC in hearts in vivo: particulate fraction of mouse hearts, 15 minutes following IP injection of 20 nmol peptide, relative to control TAT peptide
T1 construct: from tissue; host or cells: mouse heart
T1 sequence (P16054 1-737): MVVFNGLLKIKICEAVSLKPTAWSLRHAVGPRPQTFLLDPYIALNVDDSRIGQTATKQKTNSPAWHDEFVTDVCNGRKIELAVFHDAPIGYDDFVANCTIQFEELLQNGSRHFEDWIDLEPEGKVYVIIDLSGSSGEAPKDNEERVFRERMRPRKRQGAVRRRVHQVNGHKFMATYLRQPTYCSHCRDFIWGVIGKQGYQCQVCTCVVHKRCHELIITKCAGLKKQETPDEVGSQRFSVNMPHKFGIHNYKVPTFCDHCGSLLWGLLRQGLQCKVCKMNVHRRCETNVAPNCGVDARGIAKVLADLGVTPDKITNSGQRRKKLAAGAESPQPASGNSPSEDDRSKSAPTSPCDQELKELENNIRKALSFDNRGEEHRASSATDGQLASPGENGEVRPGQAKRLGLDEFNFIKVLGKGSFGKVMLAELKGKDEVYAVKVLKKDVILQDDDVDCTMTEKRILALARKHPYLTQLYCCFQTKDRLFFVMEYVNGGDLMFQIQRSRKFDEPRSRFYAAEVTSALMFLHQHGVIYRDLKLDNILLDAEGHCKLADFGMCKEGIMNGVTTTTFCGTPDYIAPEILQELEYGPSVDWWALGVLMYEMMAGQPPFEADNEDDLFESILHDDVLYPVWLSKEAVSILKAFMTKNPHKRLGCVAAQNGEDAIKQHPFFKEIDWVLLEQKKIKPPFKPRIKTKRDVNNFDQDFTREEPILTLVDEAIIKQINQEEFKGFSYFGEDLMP
Description: (§1) In a further in vivo study, peptide activity and selectivity were examined using representative peptides injected into mice via intraperitoneal (IP) injection, and the amount of εPKC, δPKC, αPKC, and ζPKC translocation in hearts was determined. These four PKC isozymes represent each of the three major sub-families of PKC. In particular, εPKC and δPKC are members of the novel PKC family (calcium insensitive, diacylglycerol sensitive), αPKC is a classical PKC (calcium and diacylglycerol sensitive), and ζPKC is an atypical PKC (calcium and diacylglycerol insensitive).
(§2) Levels of εPKC, δPKC, αPKC, and ζPKC in the particulate fraction of mouse hearts were assayed by immunoblot 15 minutes following IP injection of 20 nmol each peptides (FIGS. 5A-5D). The accompanying graphs show quantitation based on two experiments, calculated as fold increase (+/−standard error) in the particulate fraction/total fraction, normalized to the actin loading control, and relative to the control TAT peptide. […] Since peptides 11 and 13 caused MARCKS phosphorylation in myocytes from the εPKC knockout mice (FIG. 3), it is concluded that they activated several PKC isozymes.
(§3) Isozyme Selectivity In Vivo—To determine that activator peptides causing MARCKS phosphorylation and decreasing ischemia-reperfusion damage in heart also induce εPKC translocation in vivo, we injected the respective peptides at 20 nmol in 200 μl saline into the peritoneum of 15-20 g mice, as previously reported (48). Fifteen minutes later, the mice were sacrificed and heart and brain were collected. Soluble and particulate fractions from mouse tissue were prepared as previously described (48). ε, ζ and δPKC translocation were determined by Western blot analysis using selective anti-PKC antibodies from Santa Cruz Biotechnology, Santa Cruz, Calif. and used at 1:500 dilution. Sarcomeric actin (1:1000, Sigma) was used as a loading control for all fractions.

PKC [6] = settings: primary mouse muscle cells, wild-type; 1 μM peptide for 15 or 30 minutes prior to cell lysis
αPKC = biological target: T2, αPKC (Mus musculus, UniProt P20444); assay: In vivo PKC translocation in hearts after intraperitoneal injection (immunoblot); set-up: species or system mice; settings: particulate fraction of mouse hearts, 15 minutes following IP injection of 20 nmol peptide; relative to control TAT peptide
T2 construct: from tissue; host or cells: mouse heart
Description: as §1, §2, §3

δPKC = biological target: T3, δPKC (Mus musculus, UniProt P28867); assay: as above; set-up: species or system mice; settings: particulate fraction of mouse hearts, 15 minutes following IP injection of 20 nmol peptide; relative to control TAT peptide
T3 construct: from tissue; host or cells: mouse heart
Description: as §1, §2, §3

ηPKC = settings: ηPKC-derived peptides; Ref. (1, 63); cited from earlier work
[7] = 1 μM TAT-conjugated peptide 10 minutes prior to 40 minutes global ischemia, 60 minutes reperfusion (peptide 9: 30 minutes ischemia), † and ‡ = trend towards cardioprotective (n = 5, n = 3)

Chain of ηPKC (P24723 whole entry, the tested form may be a part): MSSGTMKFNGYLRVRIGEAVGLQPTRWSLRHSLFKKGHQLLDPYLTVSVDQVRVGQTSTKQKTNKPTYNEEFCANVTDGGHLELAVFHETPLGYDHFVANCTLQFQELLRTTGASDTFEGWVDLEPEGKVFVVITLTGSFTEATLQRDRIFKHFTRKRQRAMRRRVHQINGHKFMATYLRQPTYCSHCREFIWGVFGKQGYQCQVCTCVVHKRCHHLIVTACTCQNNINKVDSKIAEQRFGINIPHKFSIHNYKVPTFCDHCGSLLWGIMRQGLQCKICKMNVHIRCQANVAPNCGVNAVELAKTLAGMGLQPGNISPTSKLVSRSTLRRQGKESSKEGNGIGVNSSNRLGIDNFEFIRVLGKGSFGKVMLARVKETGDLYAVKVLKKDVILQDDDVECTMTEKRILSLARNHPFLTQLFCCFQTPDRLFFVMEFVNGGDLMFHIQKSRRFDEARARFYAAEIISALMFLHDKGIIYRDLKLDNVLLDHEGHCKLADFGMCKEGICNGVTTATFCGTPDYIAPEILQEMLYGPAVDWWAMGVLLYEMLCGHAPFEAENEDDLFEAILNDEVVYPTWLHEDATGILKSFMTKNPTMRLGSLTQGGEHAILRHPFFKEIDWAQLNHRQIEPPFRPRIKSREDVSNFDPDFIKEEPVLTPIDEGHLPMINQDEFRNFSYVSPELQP
T3 sequence (P28867 whole entry): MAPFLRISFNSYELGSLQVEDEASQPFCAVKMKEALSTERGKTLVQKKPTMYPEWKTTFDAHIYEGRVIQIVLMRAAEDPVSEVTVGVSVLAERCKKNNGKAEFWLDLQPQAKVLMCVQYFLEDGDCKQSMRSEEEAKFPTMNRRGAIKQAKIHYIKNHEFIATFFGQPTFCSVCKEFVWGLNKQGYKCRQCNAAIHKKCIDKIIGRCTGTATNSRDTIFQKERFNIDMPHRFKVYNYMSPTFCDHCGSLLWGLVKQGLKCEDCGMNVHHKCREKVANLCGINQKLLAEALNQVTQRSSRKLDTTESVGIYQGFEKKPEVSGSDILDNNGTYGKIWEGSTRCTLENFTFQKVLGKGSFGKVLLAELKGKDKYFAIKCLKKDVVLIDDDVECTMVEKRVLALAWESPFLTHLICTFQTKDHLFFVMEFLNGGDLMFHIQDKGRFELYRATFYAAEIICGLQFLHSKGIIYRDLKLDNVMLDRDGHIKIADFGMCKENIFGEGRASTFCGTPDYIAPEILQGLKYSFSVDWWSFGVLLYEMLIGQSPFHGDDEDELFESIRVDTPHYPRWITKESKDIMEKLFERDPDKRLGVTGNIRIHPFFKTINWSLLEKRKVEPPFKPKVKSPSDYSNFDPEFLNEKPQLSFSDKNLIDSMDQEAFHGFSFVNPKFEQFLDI

| Substance | εPKC translocation in cells (εPKC [1]) | Cardioprotective ex vivo (intact heart, ex vivo [2]) | MARCKS phosphorylation in εKO Cells (PKC [3]) | other results |
| --- | --- | --- | --- | --- |
| CPAWHD [Peptide 7] | decrease in the amount of εPKC in the pellet fraction; also recorded: inhibitor | no | – | decrease in the amount of translocated εPKC compared to pre-treatment with the TAT control peptide (εPKC [1]; 500 nM peptide 15 minutes, then 3 nM PMA 7 minutes, n=3, p<0.01): approximately 50% |
| CEAVSLKPT [εV1-2, reference compound] | decrease in the amount of εPKC in the pellet fraction; also recorded: inhibitor | – | no effect | Cardioprotective ex vivo (intact heart, ex vivo [2]; [7]): no |
| CEFVTDV [Peptide 8] | activator | not cardioprotective and no | not conclusive | – |
| CHDAPIGYD [ψεRACK, reference compound] | activator | – | not in KO; also recorded: no effect | damage (infarction) of hearts subjected to ischemia and reperfusion ex vivo (intact heart, ex vivo [4]): reduced damage; Cardioprotective ex vivo (intact heart, ex vivo [2]; [7]): cardioprotective and yes; translocation of εPKC in hearts in vivo (εPKC [5]): caused translocation of εPKC |
| CAVGPRPQT (not fully specified (residue 1)) [Peptide 2] | activator | – | not in KO; also recorded: no effect | increase in the amount of εPKC translocation compared to pre-treatment with the TAT control peptide (εPKC [1]; 500 nM peptide 15 minutes, then 3 nM PMA 7 minutes, n=5, p<0.05): approximately 30%; Cardioprotective ex vivo (intact heart, ex vivo [2]; [7]): cardioprotective and yes |
| CPDYHDAGI (not fully specified; also: TAT47-57 conjugated) [scrambled ψεRACK, reference compound] | – | not cardioprotective and no | – | MARCKS phosphorylation in WT Cells (PKC [6]): No change |
| CHFEDWID (not fully specified; also: TAT47-57 carrier linked via Cys disulfide) [Peptide 11] | – | not cardioprotective and no | increased MARCKS phosphorylation; also recorded: activator | translocation of εPKC in hearts in vivo (εPKC [5]): substantial translocation; translocation of αPKC in hearts in vivo (αPKC): substantial translocation; translocation of δPKC in hearts in vivo (δPKC): substantial translocation |
| CNGRKI (not fully specified; also: TAT47-57 carrier linked via Cys disulfide) [Peptide 9] | activator | cardioprotective and yes | not in KO; also recorded: no effect | – |
| CSRIGQ [Peptide 5] | activator | cardioprotective and yes | not in KO; also recorded: no effect | translocation of εPKC in hearts in vivo (εPKC [5]): caused translocation of εPKC |
| CYGRKKRRQRRR (TAT carrier peptide with N-terminal cysteine) [reference compound] | no effect | – | no effect | Cardioprotective ex vivo (intact heart, ex vivo [2]; [7]): no; Cardioprotective ex vivo (intact heart, ex vivo [2]; 1 μM TAT-conjugated peptide 10 minutes prior to 40 minutes global ischemia, 60 minutes reperfusion (peptide 9: 30 minutes ischemia), † and ‡ = trend towards cardioprotective (n = 5, n = 3), listed as TAT): not cardioprotective; MARCKS phosphorylation in WT Cells (PKC [6]): no effect |
| EAVGLQPT (peptide derived from eta PKC) | – | – | – | Activity (known PKC-modulating activity) (ηPKC): inhibitor |
| CFLLDPY [Peptide 3] | activator | trend towards cardioprotection and yes‡ | not in KO; also recorded: no effect | – |
| CVYVIIDL (not fully specified (residue 1)) [Peptide 13] | activator | not cardioprotective and no | increased MARCKS phosphorylation; also recorded: activator | – |
| CTATKQKT (not fully specified; also: TAT47-57 carrier linked via Cys disulfide) [Peptide 6] | activator | cardioprotective and yes | weak activator | MARCKS phosphorylation in WT Cells (PKC [6]): activator |
| CLEPEGK [Peptide 12] | decrease in the amount of εPKC in the pellet fraction; also recorded: inhibitor | – | – | – |
| CIELAVF [Peptide 10] | activator | no | not conclusive | MARCKS phosphorylation in WT Cells (PKC [6]): activator |
| CPYIALNVD (not fully specified (residue 1)) [Peptide 4] | decrease in the amount of εPKC in the pellet fraction; also recorded: inhibitor | – | – | – |
| CFNGLLKIKI (not fully specified (residue 1)) [Peptide 1] | activator | – | not in KO; also recorded: no effect | Cardioprotective ex vivo (intact heart, ex vivo [2]; [7]): trend towards cardioprotection and yes†; translocation of εPKC in hearts in vivo (εPKC [5]): caused translocation of εPKC |
| CLSETKPAV (not fully specified; also: TAT47-57 conjugated) [scrambled εV1-2, reference compound] | stimulated εPKC translocation; also recorded: activator | not cardioprotective and no | no effect | PKC translocation, in vivo (εPKC [5]; mouse hearts, 15 minutes after IP injection of 20 nmol peptide, the cell words say which of ε, δ, α, ζPKC translocate): no; translocation of εPKC in hearts in vivo (εPKC [5]): did not cause an increase; translocation of δPKC in hearts in vivo (δPKC): did not cause an increase |
| HETPLGYD (peptide derived from eta PKC) | – | – | – | Activity (known PKC-modulating activity) (ηPKC): activator |
